Measurements taken from US20240301090A1, “COMPOSITIONS AND METHODS FOR TREATING A MEDICAL CONDITION” (priority 2021, published 2024).

Assays:
[1] = system: αT3-1 gonadotrope cells; assay: mCherry DNA delivery in mixed culture, FACS: αT3-1 gonadotrope cells; format: cell-based, murine; settings: for delivery of DNA into the cells: GnRH-crosslinked peptides; for αT3-1 gonadotrope cells expressing mCherry: mixed 1:10 with MEFs, 1.5 hours incubation, FACS after 48 hours
Description: (§1) Following 48 hours, cell were sorted by FACS to determine the numbers of cells expressing each fluorescent protein in a quantitative manner. The mCherry expression was detected in 58% of the αT3-1 gonadotrope cells, and in 3% of the MEFs.
(§2) Transfection with delivery peptides—Mixed cell cultures, in which the gonadotropes comprise ˜10% of the cells, as in the pituitary gland, were transferred to media without FCS or antibiotics and pre-incubated for 1.5 hours prior to transfection. The DNA: peptide mix (ratio 1:5; for every 1 μg DNA [mCherry or KRAB-Sf1], 5 μg peptide was used) was incubated for 5 minutes and then added to the cells. Following 1.5 hours the media was removed and replaced with fresh complete media. Cells were collected 24-48 hours later for counting by FACS to determine specificity and efficacy of the delivery, or after 2 weeks for gene expression analysis by qPCR. Further optimization in the mixed cell cultures utilized GnRH-crosslinked Peptide2 mixed 1:10 with non-crosslinked Peptide 2 to attain maximal efficiency and targeting specificity.
(§3) To test whether the newly designed GnRH-carrier might deliver DNA specifically to GnRH receptor-expressing cells, it was first applied to αT3-1 gonadotrope cells and Egr1 mRNA levels measured as a readout for GnRHR binding. […] Following, cells were sorted and counted by FACS to determine the number of cells expressing the delivered DNA in an unbiased manner. After optimization, the number of gonadotrope cells that were transfected reached around 58%, while only 3% of MEF cells expressed the mCherry (FIG. 12B). Assuming 80% of the αT3-1 indeed express the GnRH receptor, the targeting was successful in 72.5% of the GnRH receptor-expressing cells.

[2] = target: T1, GnRH receptor (GnRHR) (Mus musculus, UniProt Q01776); assay: Egr1 mRNA induction as readout of GnRHR binding in αT3-1 cells; format: cell-based, murine; set-up: endogenous in cells; host or cells: αT3-1 gonadotrope cell line; settings: αT3-1 gonadotrope cells
T1 sequence (Q01776 1-327): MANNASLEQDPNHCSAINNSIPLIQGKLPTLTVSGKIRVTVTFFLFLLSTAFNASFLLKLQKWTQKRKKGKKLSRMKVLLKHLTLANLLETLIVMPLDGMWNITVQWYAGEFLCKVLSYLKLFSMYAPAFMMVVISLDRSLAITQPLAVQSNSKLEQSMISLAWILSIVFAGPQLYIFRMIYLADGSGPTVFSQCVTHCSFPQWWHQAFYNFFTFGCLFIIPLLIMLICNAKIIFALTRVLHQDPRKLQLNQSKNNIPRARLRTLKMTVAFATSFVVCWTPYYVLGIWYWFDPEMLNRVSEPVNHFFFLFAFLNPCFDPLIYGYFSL
Description: as §1
RT-PCR—Real-time quantitative PCR was performed following RNA extraction (Trizol, Invitrogen followed by Zymo RNA purification kit+DNase) and reverse transcriptase (qScript cDNA synthesis kit, Quanta) using polymerase (2×qPCRBIO Fast qPCR SyGreen Blue Mix, Hi-ROX, PCR Biosystems) and the primers shown in Table 2 hereinbelow. Values were calculated using DNA standard curves and normalized to levels of Rplp0.
as §3

[3] = system: MEFs; assay: mCherry DNA delivery in mixed culture, FACS: MEFs; format: cell-based; settings: mixed culture with αT3-1, 1.5 hours incubation, FACS after 48 hours
Description: as §1
as §2, with “Further optimization in the mixed cell cultures utilized GnRH-crosslinked Peptide2 mixed 1:10 with non-crosslinked Peptide 2 to attain maximal efficiency and targeting specificity.” left out
To test whether the newly designed GnRH-carrier might deliver DNA specifically to GnRH receptor-expressing cells, it was first applied to αT3-1 gonadotrope cells and Egr1 mRNA levels measured as a readout for GnRHR binding. […] Following, cells were sorted and counted by FACS to determine the number of cells expressing the delivered DNA in an unbiased manner. […]

[4] = system: T2, Boc-Arg-Val-Arg-Arg-MCA reporter peptide substrate
T2 sequence: RVRR

[5] = system: MEF cells; assay: DNA delivery into MEF cells (qPCR of GFP transcript); format: cell-based; settings: CPP packaged with DNA construct
Description: (§4) FIG. 9A is a schematic representation of the CPP (NF51) cross-linked to GnRH using this approach and then packaged with the DNA. In FIG. 9B, LβT2 or MEF cells were treated with the NF51-DNA alone, or after its crosslinking to GnRH Lys6. PCR was carried out as in FIG. 8E. Also shown are mRNA levels in samples that lacked the reverse transcriptase (RT).
The delivery delivery proteins—the minimal delivery protein (MDP) chimeric protein (protamine and NLS, SEQ ID NO: 89) was synthesized by GL Biochem. It was crosslinked to GnRH Lys6 analog (SEQ ID NO: 9, Sigma), via the Lys^6 of the GnRH and the C-terminal Cys of the above protein using sulfo-GMBS. The crosslinked protein was dialyzed against PBS. NF51 ([stearyl-AGYLLG]-delta-[…], SEQ ID NO: 103 conjugated through Gly6 to the δ-NH2 group of ornithine 1 of SEQ ID NO: 100) was purchased commercially (Icosagen) and cross-linked to GnRH Lys6 using Traut reagent (Pierce) followed by sulfo-GMBS (Thermo Fisher). Peptide 1 comprises the same CPP sequence as NF51 with a terminal cysteine (stearyl-AGYLLG)-delta-[…]-NH2, SEQ ID NO: 103 conjugated through Gly6 to the δ-NH2 group of ornithine 1 of SEQ ID NO: 101) for direct cross-linking, and Peptide 2 contains also the PACE cleavage (stearyl-AGYLLG)-delta-[…]-NH2, SQ ID NO: 103 conjugated through Gly6 to the δ-NH2 group of ornithine 1 of SEQ ID NO: 102). […]

[6] = system: LβT2 cells; assay: DNA delivery into LβT2 cells (qPCR of GFP transcript); format: cell-based; settings: CPP packaged with DNA construct
Description: FIG. 8A is a schematic representation of a MDP containing protamine as a cell penetrating peptide (CPP), a NLS sequence and C-terminal cysteine cross-linked to GnRHLys6. […] Results are shown as mean±SEM, n=3. […] In FIG. 8E, LβT2 cells were treated with the MDP at two concentrations (200 ng DNA+300 ng MDP or 1 μg DNA+1.5 μg MDP), or 200 ng DNA was transfected using Polyjet reagent (positive control). Following 72 hours, RNA was extracted, purified and treated with DNAse, and qPCR performed using primers targeting the adaptor and GFP, and then by nested PCR targeting just the GFP. Results are shown as mean±SEM, n=3.
as §4
The delivery delivery proteins—the minimal delivery protein (MDP) chimeric protein (protamine and NLS, SEQ ID NO: 89) was synthesized by GL Biochem. It was crosslinked to GnRH Lys6 analog (SEQ ID NO: 9, Sigma), via the Lys^6 of the GnRH and the C-terminal Cys of the above protein using sulfo-GMBS. The crosslinked protein was dialyzed against PBS. […]

[7] = target: T3, Boc-Arg-Val-Arg-Arg-MCA reporter peptide substrate
T3 chain: RVRR

(stearyl-AGYLLG)-delta-OINLKALAALAKKILC-NH2 [Peptide 1]
delivery of DNA into the cells [1]: could deliver some DNA into the cells
Egr1 mRNA activation (GnRHR binding) [2]: also activated the receptor

(stearyl-AGYLLG)-delta-OINLKALAALAKKILRVRRC-NH2 [GnRH Lys6-Peptide 2]
delivery of DNA into the cells [1]: could deliver some DNA into the cells
successful targeting of GnRH receptor-expressing cells ([1]; assuming 80% of the αT3-1 express the GnRH receptor): 72.5%
specificity of DNA delivery to gonadotropes ([1]; compared with peptide without PACE4 cleavage site): much more specific to gonadotropes
αT3-1 gonadotrope cells expressing mCherry [1]: 58%
αT3-1 gonadotrope cells expressing mCherry ([1]; listed as Peptide 2): around 58%
Egr1 mRNA activation (GnRHR binding) [2]: activated Egr1 mRNA
MEFs expressing mCherry [3]: 3%

PACE4 secreted by LβT2 gonadotrope cells (in conditioned medium)
fluorescence on cleavage of the substrate (380 nm ex/460 nm em) [4]: cutting the reporter and emitting fluorescence at a much higher level than seen in the incubation media of MEF cells

[stearyl-AGYLLG]-delta-OINLKALAALAKKIL [NF51, reference compound]
transfection of MEF cells [5]: highly efficient
transfection of LβT2 gonadotrope cells [6]: highly efficient

B1: PACE4 secreted by PANC-1 pancreatic cells (in conditioned medium) (protein)
chain: QVRSDPQALYFNDPIWSNMWYLHCGDKNSRCRSEMNVQAAWKRGYTGKNVVVTILDDGIERNHPDLAPNYDSYASYDVNGNDYDPSPRYDASNENKHGTRCAGEVAASANNSYCIVGIAYNAKIGGIRMLDGDVTDVVEAKSLGIRPNYIDIYSASWGPDDDGKTVDGPGRLAKQAFEYGIKKGRQGLGSIFVWASGNGGREGDYCSCDGYTNSIYTISVSSATENGYKPWYLEECASTLATTYSSGAFYERKIVTTDLRQRCTDGHTGTSVSAPMVAGIIALALEANSQLTWRDVQHLLVKTSRPAHLKASDWKVNGAGHKVSHFYGFGLVDAEALVVEAKKWTAVPSQHMCVAASDKRPRSIPLVQVLRTTALTSACAEHSDQRVVYLEHVVVRTSISHPRRGDLQIYLVSPSGTKSQLLAKRLLDLSNEGFTNWEFMTVHCWGEKAEGQWTLEIQDLPSQVRNPEKQGKLKEWSLILYGTAEHPYHTFSAHQSRSRMLELSAPELEPPKAALSPSQVEVPEDEEDYTAQSTPGSANILQTSVCHPECGDKGCDGPNADQCLNCVHFSLGSVKTSRKCVSVCPLGYFGDTAARRCRRCHKGCETCSSRAATQCLSCRRGFYHHQEMNTCVTLCPAGFYADESQKNCLKCHPSCKKCVDEPEKCTVCKEGFSLARGSCIPDCEPGTYFDSELIRCGECHHTCGTCVGPGREECIHCAKNFHFHDWKCVPACGEGFYPEEMPGLPHKVCRRCDENCLSCAGSSRNCSRCKTGFTQLGTSCITNHTCSNADETFCEMVKSNRLCERKLFIQFCCRTCLLAG
fluorescence on cleavage of the substrate [7]: cutting the reporter and emitting fluorescence at a much higher levels than the HEK cells
